For orientation: pIC50 means −log10 of the IC50, conventionally taken in molar units. A high value points to a low IC50. The term inhibition denotes the relative decrease from the control value, in per cent.

The test system of assay [1] is mice treated with the uricase inhibitor potassium oxonate. Description: Uric acid excretion in urine of mice treated with the uricase inhibitor potassium oxonate. The note with it: for Urine Uric Acid: urine collected between 3 and 5 hours after drug; for Effect on uric acid in urine versus the Oxonate control group (in words): urine collected between 3 and 5 hours after drug administration. It is filed as in vivo, mouse. The source says:
The model to induce hyperuricemia involves the use of the uricase (urate oxidase) inhibitor potassium oxonate that causes a delay in the degradation of uric acid to allantoin. Humans have little or no uricase activity, so inhibition of this enzyme with potassium oxonate makes mouse uric acid processing more similar to that of humans. Male 11-week old C57/B16 mice (Harlan, Frederick, Md.) were used in the studies (8 per experimental group). Mice were receiving standard rodent chow that was removed one hour before administration of potassium oxonate. Mice were given an intraperitoneal injection (i.p.) of potassium oxonate (300 mg/kg) that was suspended in 0.5% hydroxypropylmethylcellulose (HPMC). […] Urine collection was performed at 1, 3 and 5 hours after drug treatments and uric acid was measured with a colorimetric assay (BioVision Research Products, Mountain View, Calif.).

Assay [2] deals with healthy, normal men and women. In words: Single oral dose clinical study, blood/plasma uric acid levels (Examples 1 and 4). It is filed as in vivo, human. Conditions: for Mean Percent Change (blood uric acid levels): before vs 24 hours after administration. The method, then:
Five groups of 4 healthy, normal men and women received a single, oral administration of escalating doses of Compound BI (n=3 per group) or placebo capsules (n=1 per group) in a randomized, double blind clinical study. Blood uric acid levels were measured before and 24 hours after administration of study treatment. Compound BI was administered at doses of 50, 100, 200, 400 or 800 mg.
Plasma samples taken immediately prior to and at 1, 2, 4, 6, 12 and 24 hours after a single, oral administration of a test compound to 4 healthy, normal men and women in each of three groups as described above in Example 1 were analyzed to determine uric acid levels. Compound BI (n=3 per group) or placebo capsules (n=1 per group) were administered in a randomized, double blind clinical study. Plasma samples taken at the time points indicated from patients receiving Compound BI at doses of 200, 400 or 800 mg were stored at −70° C. and analyzed at a later time.

Assay [3] has as its system healthy normal men and women. Description: Seven-day once/twice daily dosing clinical study, blood/plasma uric acid levels (Examples 2 and 5). Format: in vivo, human. The note with it: for Percent Change in Uric Acid Levels Following a Single Administration of Study Treatment, Mean Percent Change: 24 hours after the first administration; for Percent Change in Uric Acid Levels Following a Daily Administration of Study Treatment for Seven Days, Mean Percent Change: after 7 consecutive days; for Effect on blood uric acid levels (in words): 400 mg twice per day or 800 mg once per day groups. How it is done:
Two groups of 8 healthy normal men and women received oral administration of either 800 mg Compound BI once per day (n=6 per group) or 400 mg Compound BI twice per day (n=6 per group) or placebo capsules (n=2 per group) in a randomized, double blind clinical study. Blood uric acid levels were measured before administration of study treatment, 24 hours after the first administration of study treatment and after 7 consecutive days of study treatment administration.
Sixteen men and women participating in a clinical study were randomly assigned to receive either placebo capsules (n=4 subjects), 400 mg Compound BI twice per day (n=6 subjects), or 800 mg Compound BI once per day (n=6 subjects) for seven consecutive days. Plasma samples taken prior to (Time 0) and at 1, 2, 4, 9, 11, 13, 18 and 24 hours after the initial administration of the test article on Day 7 of the study were stored at −70° C. and later analyzed for uric acid. (This Example 5 is a continuation of the experiment described in Example 2.)

Assay [4] deals with T1, human URAT1 (Homo sapiens, UniProt Q96S37).
T1 construct: The full-length hURAT1 cDNA was obtained from the vector pCMV6-XL5 and subcloned into the expression vector pCMV6-Neo
T1 sequence (Q96S37 1-553): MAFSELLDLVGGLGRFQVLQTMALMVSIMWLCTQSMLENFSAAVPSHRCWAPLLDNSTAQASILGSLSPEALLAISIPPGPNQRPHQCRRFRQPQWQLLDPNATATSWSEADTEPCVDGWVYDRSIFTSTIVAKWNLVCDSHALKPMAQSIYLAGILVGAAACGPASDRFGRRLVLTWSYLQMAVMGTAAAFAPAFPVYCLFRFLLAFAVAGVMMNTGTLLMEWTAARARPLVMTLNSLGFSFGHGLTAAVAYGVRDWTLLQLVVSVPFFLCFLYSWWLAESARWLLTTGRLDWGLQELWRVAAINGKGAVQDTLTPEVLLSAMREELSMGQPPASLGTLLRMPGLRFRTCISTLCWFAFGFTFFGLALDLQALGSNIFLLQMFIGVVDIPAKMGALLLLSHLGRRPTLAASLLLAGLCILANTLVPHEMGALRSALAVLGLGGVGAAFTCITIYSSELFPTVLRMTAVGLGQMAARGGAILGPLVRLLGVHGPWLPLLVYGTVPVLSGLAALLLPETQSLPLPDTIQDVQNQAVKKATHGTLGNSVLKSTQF
In words: URAT1 inhibition assay, [8-14C] urate uptake in hURAT1-HEK cells. It is filed as cell-based. Conditions: 50 μM [8-14C] urate; for inhibition at 10 µM: drug concentration typically 10 micromolar, read-out: % of Inhibition (uric acid uptake). How it is done:
A suitable assay involves transfection of cells (e.g. human embryonic kidney cells; “HEK”) with a vector encoding human URAT1, followed by determination of the ability of transfected cells to take up radiolabeled uric acid. The activity of compounds as URAT1 inhibitors is evaluated by their ability to block uric acid uptake by transfected cells.
Urate (50-60 mCi/mmol; American Radio Chemicals, Cat. No. ARC0513).
Plasmid vector pCMV6-XL5 containing hURAT1 cDNA (Cat. No. SC125624) and the expression vector pCMV6-Neo (Cat. No. pCMVNEO) were obtained from OriGene Technologies, Inc. The full-length hURAT1 cDNA was obtained from the vector pCMV6-XL5 and subcloned into the expression vector pCMV6-Neo to create the hURAT1 expression plasmid pCMV6-hURAT1. The sequences were verified by automatic DNA sequencing.
For transfection experiments, cells were plated on 60 mm dishes in 1 ml media per dish. […] Stable transfectants expressing hURAT1 (herein after referred as hURAT1-HEK cells) or cells having only the expression vector pCMV6-Neo (herein after referred as mock-HEK cells) were verified using reverse transcription polymerase chain reaction (RT-PCR) methods.
Before the uptake assay started, the culture medium was removed and the cells were incubated for 5 min in 0.6 ml of HBSS. After that HBSS was removed, the prepared reaction solutions were added into each well and incubated for 5 min at room temperature. Then the reaction solution was removed, cells were washed twice with 0.6 ml of cold HBSS and lysed with 0.2 ml of 0.1 M NaOH for 20 min. […] Test compounds were dissolved in DMSO and the same concentration of DMSO was added into the wells of mock-HEK cells and the hURAT1-HEK cells that didn't contain test compounds. For each test compound, the uptake assay was performed 2 times and carried out in triplicate. Urate uptake of the cells for each test condition was presented as the average percent inhibition in comparison to the DMSO control. The radioactivity values obtained for the wells that contained DMSO were taken as 100% uptake of the cells. The observed concentration-percent inhibition data were fitted to a sigmoidal concentration-effect model, where: IC50^Slope=[(100*Conc^Slope)/% Inhibition]−Conc^Slope
Additional drug concentrations were tested for determination of IC-50 values for some compounds (Table 6).

Setting [5] is: 100 mg/kg p.o. after oxonate 300 mg/kg i.p.

Each structure is given as a SMILES string. pIC50: −log10 of the molar value.

`Oc1ncnc2[nH]ncc12` [Allopurinol]: in assay [1] (20 mg/kg p.o. after oxonate 300 mg/kg i.p.), the “Urine Uric Acid” value is 79 mg/dL. Moreover, the “Effect on uric acid in urine versus the Oxonate control group (in words)” value in assay [1] is recorded as “reduced the concentration of uric acid in urine”.

In the case of `CCc1oc2ccccc2c1C(=O)c1cc(Br)c(O)c(Br)c1` [Benzbromarone], the “Urine Uric Acid” value amounted to 185 mg/dL in assay [1] (30 mg/kg p.o. after oxonate 300 mg/kg i.p.) and 173 mg/dL in assay [1] (setting [5]). Also, the “Effect on uric acid in urine versus the Oxonate control group (in words)” value in assay [1] is recorded as “induced an increase in uric acid concentration in urine, though to lesser degree than Compound BI”.

On to `Cc1cccc(C)c1COc1cccc(C(=O)CCC(=O)O)c1` [Compound BI, 4-(3-(2,6-Dimethylbenzyloxy)phenyl)-4-oxobutyric acid], for which the “Effect on plasma uric acid levels over 24 hours (in words)” value in assay [2] (single dose 200, 400 or 800 mg, FIG. 2) is on record as “significant, dose-dependent reductions”. The “Mean Percent Change (blood uric acid levels)” value in assay [2] (single oral dose 50 mg) is on record as −8.8%; in assay [2] (single oral dose 100 mg) it was −13.4%; in assay [2] (single oral dose 200 mg), −18.9%; in assay [2] (single oral dose 400 mg) it was −35.0%; in assay [2] (single oral dose 800 mg) it was −32.7%. In addition, the “Effect on blood uric acid levels (in words)” value in assay [2] (single oral dose 50, 100, 200, 400 or 800 mg, 24 hours) is listed as “significant, dose-dependent reduction”; in assay [3] (daily administration for 7 days) it was “significant reduction”; in assay [3] (single dose) it was “significant reduction”. Besides, the results for the “Percent Change in Uric Acid Levels Following a Single Administration of Study Treatment, Mean Percent Change” value in assay [3] (400 mg bid) and in assay [3] (800 mg qd) were −54.0% and −45.3%, respectively. Moreover, the entries for the “Percent Change in Uric Acid Levels Following a Daily Administration of Study Treatment for Seven Days, Mean Percent Change” value in assay [3] (400 mg bid) and in assay [3] (800 mg qd) were −56.7% and −53.2%, respectively. The “Plasma uric acid levels at Time 0 on Day 7 compared to Time 0 on the first day and to placebo (in words)” value in assay [3] (400 mg twice per day or 800 mg once per day for seven days, FIG. 3) is “significantly reduced”. The “Urine Uric Acid” value in assay [1] (setting [5]) is reported as 293 mg/dL. Besides, the “Effect on uric acid in urine versus the Oxonate control group (in words)” value in assay [1] was “significant increase in excreted uric acid”. The pIC50 in assay [4] is 6.02. The inhibition at 10 µM in assay [4] turned out to be 86.1%.

Consider `Cc1cccc(Cl)c1COc1cccc(CC(=O)O)c1` [EG, 2-(3-(2-Chloro-6-methylbenzyloxy)phenyl)acetic acid], for which the inhibition at 10 µM in assay [4] was 89.7%.

Take `Cc1cccc(C)c1COc1cc(CC(=O)O)ccc1F` [EI, 2-(3-(2,6-Dimethylbenzyloxy)-4-fluorophenyl)acetic acid]: the inhibition at 10 µM in assay [4] was found to be 93%.

The record behind these values is patent US9115072B2, “Compounds and method for reducing uric acid” (WELLSTAT THERAPEUTICS CORPORATION, priority 2008, dated 2015).
